Assay results published in US20230279246A1, “MOLECULE-CONTAINING SURFACES AND METHODS OF PREPARATION THEREOF” (University of Durham, priority 2020, published 2023).

Tested on: Gram-negative Escherichia coli BW25113
Assay: Antibacterial testing of coated substrates, CFU plate counting
Settings: relative to untreated substrate; for Bacteria Loss/Log10 Reduction E. coli (Gram-negative): coated PET film, 4 h at 30 °C, mean ± standard deviation; for Log10 Reduction E. coli: plasma poly(4-vinylaniline) series, title: polypropylene film, text: PET substrates, average ± standard deviation
Procedure: The prepared substrates with their respective coatings were subsequently tested for their antibacterial qualities against representative species of Gram-negative and Gram-positive bacteria. Gram-negative Escherichia coli BW25113 (CGSC 7636; rrnB3 ΔlacZ4787 hsdR514 Δ(araBAD)567 Δ(rhaBAD)568 rph-1) and Gram-positive Staphylococcus aureus (FDA209P, an MSSA strain; ATCC 6538P) bacteria cultures were prepared using autoclaved (Autoclave Vario 1528, Dixons Ltd.) Luria-Bertani broth media (LB; L3022, Sigma-Aldrich Ltd., 2% w/v in Milli-Q® grade water). A 5 ml bacterial culture was grown from a single colony for 16 h at 37° C., and then 50 μL used to inoculate a sterile polystyrene cuvette (Catalogue No. 67.742, Sarstedt AG) containing 1 mL of LB Broth. The cuvette was covered with Parafilm (Cole-Parmer Ltd.) and then placed inside a shaking incubator (model Stuart Orbital Incubator S1500, Cole-Parmer Ltd.) set at 37° C. and 120 rpm. An optical density OD600nm=0.4 was verified using a UV-Vis spectrophotometer (model Jenway 6300, Cole-Parmer Ltd.) to obtain bacteria at the mid-log phase of growth.
Uncoated control samples were washed in absolute ethanol for 15 minutes and then dried under vacuum in order to make sure they were sterile and clean. Sterile microtubes (1.5 mL, Sarstedt AG) were loaded with the untreated, or coated substrates. Next, 100 μL of the prepared bacterial culture was placed onto each substrate (so that the microorganisms could interact with one side of the surface), and left to incubate (model Bacterial Incubator 250, LMS Ltd.) for 4 hours at 30° C. Next, 900 μL of autoclaved Luria-Bertani broth media was pipetted into each microtube and vortexed (model Vortex-Genie 2, Scientific Industries Inc.) in order to recover the bacteria as a 10-fold dilution (10^−1). Further ten-fold serial dilutions were undertaken to provide 10^−2, 10^−3, 10^−4, 10^−5 and 10^−6 samples. Colony-forming unit (CFU) plate counting was performed by placing 10 μL drops from each diluted sample onto autoclaved Luria-Bertani Agar solid plates (EZMix™ powder, dust free, fast dissolving fermentation medium, L7533, Sigma-Aldrich Ltd.) and incubated (model Bacterial Incubator 250, LMS Ltd.) for 16 hours at 30° C. The number of colonies visible at each dilution were then counted. All tests were performed in triplicate.
Gram-negative Escherichia coli BW25113 (CGSC 7636; rrnB3 ΔlacZ4787 hsdR514 Δ(araBAD)567 Δ(rhaBAD)568 rph-1) and Gram-positive Staphylococcus aureus (FDA209P, an MSSA strain; ATCC 6538P) bacteria cultures were prepared using autoclaved (Autoclave Vario 1528, Dixons Ltd.) Luria-Bertani broth media (LB; L3022, Sigma-Aldrich Ltd., 2% w/v in grade water). A 5 ml bacterial culture was grown from a single colony for 16 h at 37° C., and then 50 μL used to inoculate a sterile polystyrene cuvette (Part No. 67.742, Sarstedt AG) containing 1 mL of LB Broth. The cuvette was covered with Parafilm (Cole-Parmer Ltd.) and then placed inside a shaking incubator (model Stuart Orbital Incubator S1500, Cole-Parmer Ltd.) set at 37° C. and 120 rpm to allow the bacteria to grow until an optical density OD600nm=0.4 was measured using a UV-Vis spectrophotometer (model Jenway 6300, Cole-Parmer Ltd.) which corresponded to the mid-log phase growth of bacteria.
Antibacterial testing was performed within 24 h of fabricating the coatings. Uncoated control samples were cleaned and sterilized by washing in absolute ethanol for 15 min and drying under vacuum. Each uncoated or coated substrate piece was placed aseptically inside a sterile microtube (1.5 mL, Sarstedt AG) so that the microorganisms could interact with one side of the surface. Next, 100 μL of the prepared bacterial culture was pipetted onto each substrate. In practice, the porous substrates absorbed the liquid so that the entire 15 mm×15 mm area of the samples was permeated by the bacterial suspension.

Structure (SMILES)	Bacteria Loss/Log10 Reduction E. coli (Gram-negative)	Bacteria Loss/Log10 Reduction E. coli (Gram-negative) (listed as cinnamaldehyde)	Log10 Reduction E. coli (listed as Cinnamaldehyde-only)	Log10 Reduction E. coli (listed as cinnamaldehyde-only)	Bacteria Loss/Log10 Reduction E. coli (Gram-negative) (listed as Tannic acid-only)
O=C/C=C/c1ccccc1 [Cinnamaldehyde, trans-cinnamaldehyde]	0.12 ± 0.07 Log10 Reduction	very small antibacterial effect	0.12 ± 0.07 Log10 Reduction	very small effect	
O=C(OC[C@H]1O[C@@H](OC(=O)c2cc(O)c(O)c(OC(=O)c3cc(O)c(O)c(O)c3)c2)[C@H](OC(=O)c2cc(O)c(O)c(OC(=O)c3cc(O)c(O)c(O)c3)c2)[C@@H](OC(=O)c2cc(O)c(O)c(OC(=O)c3cc(O)c(O)c(O)c3)c2)[C@@H]1OC(=O)c1cc(O)c(O)c(OC(=O)c2cc(O)c(O)c(O)c2)c1)c1cc(O)c(O)c(OC(=O)c2cc(O)c(O)c(O)c2)c1 [Tannic Acid, tannic acid]	0.00 Log10 Reduction				no antibacterial activity
